{"source": "patent US9492471B2", "about": "“Methods of treating a disease or disorder associated with Bruton'S Tyrosine Kinase” (Celgene Avilomics Research, Inc., priority 2013, dated 2016)", "test_in_all_cases": "HotSpot kinase profiling", "format_in_all_cases": "biochemical", "key": {"CK2a": {"target": "T1, CK2a (Homo sapiens, UniProt P68400)", "T1 construct": "purchased Reaction Biology Corp", "T1 sequence (P68400 whole entry)": "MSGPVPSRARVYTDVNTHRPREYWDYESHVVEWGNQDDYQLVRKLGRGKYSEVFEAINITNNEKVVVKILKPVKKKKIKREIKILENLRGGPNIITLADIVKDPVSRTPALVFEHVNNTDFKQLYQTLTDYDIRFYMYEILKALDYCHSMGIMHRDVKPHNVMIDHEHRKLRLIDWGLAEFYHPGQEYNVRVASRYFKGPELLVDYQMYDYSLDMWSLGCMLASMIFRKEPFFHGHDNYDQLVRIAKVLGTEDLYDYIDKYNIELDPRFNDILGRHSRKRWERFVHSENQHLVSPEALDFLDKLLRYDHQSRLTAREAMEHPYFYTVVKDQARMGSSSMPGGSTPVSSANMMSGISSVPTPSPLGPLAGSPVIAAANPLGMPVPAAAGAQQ", "in_short": "(§1)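 Radio-isotope P81 filtration format. Substrate + required cofactors in reaction buffer, kinase added, 2 h RT. Stop, wash with 0.1% phosphoric acid, detect. % inhibition vs DMSO; mean of duplicates where repeated.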"}, "PDK1/PDPK1": {"target": "T2, PDK1/PDPK1 (Homo sapiens, UniProt O15530)", "T2 construct": "purchased Reaction Biology Corp", "T2 sequence (O15530 1-556)": "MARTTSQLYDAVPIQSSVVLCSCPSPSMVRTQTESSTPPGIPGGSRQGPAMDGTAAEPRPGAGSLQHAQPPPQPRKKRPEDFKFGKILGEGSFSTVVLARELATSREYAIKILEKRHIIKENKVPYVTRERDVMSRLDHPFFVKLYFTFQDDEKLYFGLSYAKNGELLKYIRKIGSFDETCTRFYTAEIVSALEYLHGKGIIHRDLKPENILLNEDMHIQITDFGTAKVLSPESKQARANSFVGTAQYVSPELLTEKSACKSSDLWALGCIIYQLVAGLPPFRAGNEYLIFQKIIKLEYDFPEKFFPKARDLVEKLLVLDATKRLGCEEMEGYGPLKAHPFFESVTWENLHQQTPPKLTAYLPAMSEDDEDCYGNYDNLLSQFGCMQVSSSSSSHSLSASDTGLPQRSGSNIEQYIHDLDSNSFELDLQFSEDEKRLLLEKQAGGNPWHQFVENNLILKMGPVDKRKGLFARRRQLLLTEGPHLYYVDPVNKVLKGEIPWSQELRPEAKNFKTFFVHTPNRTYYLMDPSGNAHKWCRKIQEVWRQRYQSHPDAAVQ", "in_short": "as §1"}, "TBK1": {"target": "T3, TBK1 (Homo sapiens, UniProt Q9UHD2)", "T3 construct": "purchased Reaction Biology Corp", "T3 sequence (Q9UHD2 1-729)": "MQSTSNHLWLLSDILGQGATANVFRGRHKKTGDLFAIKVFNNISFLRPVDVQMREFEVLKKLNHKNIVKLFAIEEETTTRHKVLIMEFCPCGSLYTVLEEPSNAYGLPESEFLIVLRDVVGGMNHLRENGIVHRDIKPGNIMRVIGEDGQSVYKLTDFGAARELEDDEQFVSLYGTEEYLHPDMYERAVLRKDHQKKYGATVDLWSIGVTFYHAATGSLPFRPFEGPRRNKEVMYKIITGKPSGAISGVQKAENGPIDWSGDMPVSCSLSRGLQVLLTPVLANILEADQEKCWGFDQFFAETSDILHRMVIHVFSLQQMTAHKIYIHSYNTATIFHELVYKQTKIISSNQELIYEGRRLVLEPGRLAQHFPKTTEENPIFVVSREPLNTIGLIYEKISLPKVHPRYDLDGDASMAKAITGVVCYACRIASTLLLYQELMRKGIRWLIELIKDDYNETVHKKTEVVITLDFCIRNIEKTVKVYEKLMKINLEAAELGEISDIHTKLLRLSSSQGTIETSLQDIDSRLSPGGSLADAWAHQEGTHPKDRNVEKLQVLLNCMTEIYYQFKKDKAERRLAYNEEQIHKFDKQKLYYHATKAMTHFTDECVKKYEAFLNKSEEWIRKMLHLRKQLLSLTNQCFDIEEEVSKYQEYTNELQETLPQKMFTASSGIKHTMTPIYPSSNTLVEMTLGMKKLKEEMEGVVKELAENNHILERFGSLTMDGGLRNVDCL", "in_short": "as §1"}, "TYRO3/SKY": {"target": "T4, TYRO3/SKY (Homo sapiens, UniProt Q06418)", "T4 construct": "purchased Reaction Biology Corp", "T4 sequence (Q06418 41-890)": "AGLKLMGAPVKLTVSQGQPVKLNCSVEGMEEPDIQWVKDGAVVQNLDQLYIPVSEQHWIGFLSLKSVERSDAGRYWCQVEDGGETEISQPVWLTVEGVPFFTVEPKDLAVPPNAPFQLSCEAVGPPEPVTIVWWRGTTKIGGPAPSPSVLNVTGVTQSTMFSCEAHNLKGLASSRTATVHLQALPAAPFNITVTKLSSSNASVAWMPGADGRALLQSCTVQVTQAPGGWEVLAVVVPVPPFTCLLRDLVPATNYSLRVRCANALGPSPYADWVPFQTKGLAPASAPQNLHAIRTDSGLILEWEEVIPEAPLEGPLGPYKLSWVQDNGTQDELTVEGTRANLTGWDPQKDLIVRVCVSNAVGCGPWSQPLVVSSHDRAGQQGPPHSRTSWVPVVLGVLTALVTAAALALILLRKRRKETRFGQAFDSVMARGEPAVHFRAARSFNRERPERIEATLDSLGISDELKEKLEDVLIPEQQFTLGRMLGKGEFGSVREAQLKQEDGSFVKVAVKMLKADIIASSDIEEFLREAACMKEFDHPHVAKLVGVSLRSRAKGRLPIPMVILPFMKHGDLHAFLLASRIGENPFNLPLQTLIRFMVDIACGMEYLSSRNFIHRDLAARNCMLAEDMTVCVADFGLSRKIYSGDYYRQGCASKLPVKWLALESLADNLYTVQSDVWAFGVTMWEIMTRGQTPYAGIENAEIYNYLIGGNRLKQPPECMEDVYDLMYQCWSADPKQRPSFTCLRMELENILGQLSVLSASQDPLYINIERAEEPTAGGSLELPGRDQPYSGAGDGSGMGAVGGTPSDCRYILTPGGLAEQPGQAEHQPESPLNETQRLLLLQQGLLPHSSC", "in_short": "as §1"}, "[1]": {"conditions": "read-out: % Enzyme Activity (relative to DMSO controls) Run 1"}, "[2]": {"conditions": "read-out: % Enzyme Activity (relative to DMSO controls) Run 2"}}, "note": "Like-named read-outs stand apart in the source and are kept apart here."}
{"smiles": "C=CC(=O)Nc1cccc(Nc2nc(Nc3ccc(OCCOC)c(F)c3)ncc2F)c1", "note": "[Compound 2]", "values": [{"measurement": "inhibition at 3 µM", "setting": "CK2a", "result": -20.1, "unit": "%"}, {"measurement": "remaining activity at 3 µM", "setting": "CK2a; [1]", "result": 117, "unit": "%"}, {"measurement": "remaining activity at 3 µM", "setting": "CK2a; [2]", "result": 123, "unit": "%"}, {"measurement": "inhibition at 3 µM", "setting": "PDK1/PDPK1", "result": -5.96, "unit": "%"}, {"measurement": "remaining activity at 3 µM", "setting": "PDK1/PDPK1; [1]", "result": 107, "unit": "%"}, {"measurement": "remaining activity at 3 µM", "setting": "PDK1/PDPK1; [2]", "result": 105, "unit": "%"}, {"measurement": "inhibition at 3 µM", "setting": "TBK1", "result": 41.3, "unit": "%"}, {"measurement": "remaining activity at 3 µM", "setting": "TBK1; [1]", "result": 58.1, "unit": "%"}, {"measurement": "remaining activity at 3 µM", "setting": "TBK1; [2]", "result": 59.2, "unit": "%"}, {"measurement": "inhibition at 3 µM", "setting": "TYRO3/SKY", "result": 4.03, "unit": "%"}, {"measurement": "remaining activity at 3 µM", "setting": "TYRO3/SKY; [1]", "result": 95.1, "unit": "%"}, {"measurement": "remaining activity at 3 µM", "setting": "TYRO3/SKY; [2]", "result": 96.8, "unit": "%"}]}
